pIC50: −log10 of the molar value.
These compounds were tested against T1, Indoleamine 2,3-dioxygenase (Homo sapiens, UniProt P14902) (assay: SKOV-3 cellular Indoleamine 2,3-dioxygenase assay). Details: SKOV-3 cells, 50 ng/ml Interferon gamma, 100 μM L-Tryptophan, 24 hours, N-Formylkynurenin fluorescence detection; read-out: cell based activity.
T1 construct: endogenous in cells; host or cells: SKOV-3 (ATCC HTB-77), stimulated with interferon gamma
Procedure, shortened: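 SKOV-3 cells stimulated with 50 ng/ml interferon gamma, exposed to compound dilutions with L-tryptophan at 100 µM final for 24 h at 37 °C. N-formylkynurenine detected by 200 mM 3-methylpiperidine, 65 °C for 20 min, fluorescence ex 405/em 535 nm.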

T1 sequence (P14902 whole entry): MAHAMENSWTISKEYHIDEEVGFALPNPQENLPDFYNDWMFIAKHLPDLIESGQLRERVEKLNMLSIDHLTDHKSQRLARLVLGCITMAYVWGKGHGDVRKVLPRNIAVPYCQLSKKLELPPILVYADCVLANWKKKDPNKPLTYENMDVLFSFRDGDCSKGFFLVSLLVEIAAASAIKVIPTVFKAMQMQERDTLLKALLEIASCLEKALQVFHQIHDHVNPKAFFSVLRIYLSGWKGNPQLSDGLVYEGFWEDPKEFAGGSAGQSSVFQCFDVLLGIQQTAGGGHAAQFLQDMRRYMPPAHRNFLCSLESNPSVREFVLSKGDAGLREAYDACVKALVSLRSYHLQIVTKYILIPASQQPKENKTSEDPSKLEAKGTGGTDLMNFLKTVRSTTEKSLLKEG

Row | SMILES | pIC50
1 | O=C(NCCSc1nonc1C(=NO)Nc1ccc(F)c(C(F)F)c1)C(O)CO (stereo not drawn) [Example 107, N-(2-((4-(N-(3-(Difluoromethyl)-4-fluorophenyl)-N′-hydroxycarbamimidoyl)-1,2,5-oxadiazol-3-yl)thio)ethyl)-2,3-dihydroxypropanamide] | > 7.00
2 | CC1(O)CN(CCSc2nonc2C(=NO)Nc2ccc(F)c(C(F)F)c2)C1 [Example 108, N-(3-(Difluoromethyl)-4-fluorophenyl)-N′-hydroxy-4-((2-(3-hydroxy-3-methylazetidin-1-yl)ethyl)thio)-1,2,5-oxadiazole-3-carboximidamide] | > 7.00
3 | Nc1c(NCC[S+]([O-])c2nonc2C(=NO)Nc2ccc(F)c(Cl)c2)c(=O)c1=O (stereo not drawn) [Example 109, 4-((2-((2-Amino-3,4-dioxocyclobut-1-en-1-yl)amino)ethyl)sulfinyl)-N-(3-chloro-4-fluorophenyl)-N′-hydroxy-1,2,5-oxadiazole-3-carboximidamide] | 6.00 to 7.00
4 | Nc1nnc(NCCSc2nonc2C(=NO)Nc2ccc(F)c(C(F)F)c2)[nH]1 [Example 110, 4-((2-((5-Amino-4H-1,2,4-triazol-3-yl)amino)ethyl)thio)—N-(3-(difluoromethyl)-4-fluorophenyl)-N′-hydroxy-1,2,5-oxadiazole-3-carboximidamide] | 6.00 to 7.00
5 | Cc1nnc(NCCSc2nonc2C(=NO)Nc2ccc(F)c(C(F)F)c2)o1 [Example 111, N-(3-(Difluoromethyl)-4-fluorophenyl)-N′-hydroxy-4-((2-((5-methyl-1,3,4-oxadiazol-2-yl)amino)ethyl)thio)-1,2,5-oxadiazole-3-carboximidamide] | > 7.00
6 | NS(=O)(=O)NCCSc1nonc1C(=NO)Nc1cccc(C(F)F)c1 [Example 112, N-(3-(Difluoromethyl)phenyl)-N′-hydroxy-4-((2-(sulfamoylamino)ethyl)thio)-1,2,5-oxadiazole-3-carboximidamide] | > 7.00
7 | NS(=O)(=O)NCCSc1nonc1C(=NO)Nc1ccnc(C(F)(F)F)c1 [Example 112/1, N′—Hydroxy-4-((2-(sulfamoylamino)ethyl)thio)—N-(2-(trifluoromethyl)pyridin-4-yl)-1,2,5-oxadiazole-3-carboximidamide] | 6.00 to 7.00
8 | NC(=O)C(=O)NCCSc1nonc1C(=NO)Nc1ccc(F)c(Cl)c1 [Example 116, N^1-(2-((4-(N-(3-Chloro-4-fluorophenyl)-N′-hydroxycarbamimidoyl)-1,2,5-oxadiazol-3-yl)thio)ethyl)oxalamide] | > 7.00
9 | O=C(NCCSc1nonc1C(=NO)Nc1ccc(F)c(Cl)c1)c1nnn[nH]1 [Example 117, N-(2-((4-(N-(3-Chloro-4-fluorophenyl)-N′-hydroxycarbamimidoyl)-1,2,5-oxadiazol-3-yl)thio)ethyl)-1H-tetrazole-5-carboxamide] | 6.00 to 7.00
10 | NC(=O)C(F)(F)C(=O)NCCSc1nonc1C(=NO)Nc1ccc(F)c(C(F)F)c1 [Example 118] | > 7.00
11 | NC(=O)CC(=O)NCCSc1nonc1C(=NO)Nc1ccc(F)c(C(F)F)c1 [Example 119] | > 7.00
12 | CS(=N)(=O)NCCSc1nonc1C(=NO)Nc1ccc(F)c(Cl)c1 (stereo not drawn) [Example 120] | > 7.00
13 | CS(=O)(=O)Nc1ccc(C(=O)NCCSc2nonc2C(=NO)Nc2ccc(F)c(Cl)c2)cn1 [Example 121, N-(2-((4-(N-(3-Chloro-4-fluorophenyl)-N′-hydroxycarbamimidoyl)-1,2,5-oxadiazol-3-yl)thio)ethyl)-6-(methylsulfonamido)nicotinamide] | 6.00 to 7.00
14 | CS(=N)(=O)c1ccc(C(=O)NCCSc2nonc2C(=NO)Nc2ccc(F)c(C(F)F)c2)cc1 (stereo not drawn) [Example 122, N-(2-((4-(N-(3-(Difluoromethyl)-4-fluorophenyl)-N′-hydroxycarbamimidoyl)-1,2,5-oxadiazol-3-yl)thio)ethyl)-4-(S-methylsulfonimidoyl)benzamide] | > 7.00
15 | O=C(NCCSc1nonc1C(=NO)Nc1ccc(F)c(Cl)c1)C1(O)CNC1 [Example 123, N-(2-((4-(N-(3-Chloro-4-fluorophenyl)-N′-hydroxycarbamimidoyl)-1,2,5-oxadiazol-3-yl)thio)ethyl)-3-hydroxyazetidine-3-carboxamide] | 6.00 to 7.00
16 | CCN1CC(O)(C(=O)NCCSc2nonc2C(=NO)Nc2ccc(F)c(C(F)(F)F)c2)C1 [Example 124, 1-Ethyl-N-(2-((4-(N-(4-fluoro-3-(trifluoromethyl)phenyl)-N′-hydroxycarbamimidoyl)-1,2,5-oxadiazol-3-yl)thio)ethyl)-3-hydroxyazetidine-3-carboxamide] | > 7.00
17 | CN1CCC1C(=O)NCCSc1nonc1C(=NO)Nc1ccc(F)c(C(F)F)c1 (stereo not drawn) [Example 124/1, N-(2-((4-(N-(3-(Difluoromethyl)-4-fluorophenyl)-N′-hydroxycarbamimidoyl)-1,2,5-oxadiazol-3-yl)thio)ethyl)-1-methylazetidine-2-carboxamide] | > 7.00
18 | N#CC1(C(=O)NCCSc2nonc2C(=NO)Nc2ccc(F)c(C(F)F)c2)CNC1 [Example 125, 3-Cyano-N-(2-((4-(N-(3-(difluoromethyl)-4-fluorophenyl)-N′-hydroxycarbamimidoyl)-1,2,5-oxadiazol-3-yl)thio)ethyl)azetidine-3-carboxamide] | 6.00 to 7.00
19 | NC(=O)C1(C(=O)NCCSc2nonc2C(=NO)Nc2ccc(F)c(C(F)F)c2)CNC1 [Example 126] | 6.00 to 7.00
20 | CS(=N)(=O)CC(=O)NCCSc1nonc1/C(=N/O)Nc1ccc(F)c(Br)c1 (stereo not drawn) [Example 127, N-(2-((4-(N-(3-Bromo-4-fluorophenyl)-N′-hydroxycarbamimidoyl)-1,2,5-oxadiazol-3-yl)thio)ethyl)-2-(S-methylsulfonimidoyl)acetamide] | > 7.00
21 | NS(=O)(=O)NCC(=O)NCCSc1nonc1/C(=N/O)Nc1ccc(F)c(C(F)F)c1 [Example 128, N-(2-((4-(N-(3-(Difluoromethyl)-4-fluorophenyl)-N′-hydroxycarbamimidoyl)-1,2,5-oxadiazol-3-yl)thio)ethyl)-2-(sulfamoylamino)acetamide] | > 7.00

From patent US11078168B2, “Substituted N-hydroxyamidinoheterocycles as modulators of indoleamine 2,3-dioxygenase” (PHENEX DISCOVERY VERWALTUNGS-GMBH, priority 2016, dated 2021)
